{"source": "patent US9018173B2", "about": "“Materials and methods for suppressing inflammatory and neuropathic pain” (Indiana University Research and Technology Corp., priority 2010, dated 2015)", "key": {"spatial memory": {"system": "spatial memory", "test": "Morris water maze test of spatial/reference memory", "assay_type": "in vivo, mice", "details": "10 mg/kg i.p., 1 h-7 d after administration", "protocol": "The rotarod test for motor coordination was performed as described with slight modifications. Following i.p. injection of vehicle or peptides, mice were tested with three trials each of fast and slow acceleration. The Morris water maze test was used to test reference/spatial memory. Mice were trained prior to the i.p. injection of TAT-Scramble or TAT-CBD3 peptides for 4 consecutive days (4 trials/day). Performance was evaluated 3 days following injection. Morris water maze test of spatial/reference memory. The Morris water maze test was used to test spatial memory. The maze consisted of a plastic pool (100 cm in diameter and 60 cm in depth) filled with water to a depth of 26.5 cm, with a clear Plexiglas stand (10 cm in diameter and 26 cm in height [i.e., 0.5 cm below the water's surface]) used as the hidden goal platform. The mice were trained prior to the injection for 4 consecutive days (4 trials/day). For each daily block of four trials, the mice were placed in the pool facing the wall. Trials were initiated from each of the four possible start locations (north, east, south, west) in a randomized manner. A maximum of 60 sec was allowed for each mouse to find the hidden platform. […] Mice were excluded from the study if their average latency to locate the platform on day 4 of the trials was greater than 50 sec. […]"}, "[1]": {"system": "dorsal root ganglion neurons", "details": "10 μM, 12 h"}, "[2]": {"system": "anxiety-associated behavior", "test": "Light-Dark Box test (LDBT)", "assay_type": "in vivo, C57BL6 mice", "details": "for Light-Dark Box: Dark box latency to exit / Light-Dark Box: Light box entries: C57BL6 mice, 1 h after injection, 5 min test", "protocol": "The light-dark box test and the elevated plus maze were used as measures of anxiety-associated behaviors. The tail suspension test was performed to evaluate despair- and depression-associated behavior. Anxiety-behavior testing Anxiety occurs when there is conflict between risk and reward. The Light-Dark Box test (LDBT) and the elevated plus maze (EPM) are accepted tests of anxiety-associated behavior that assess the conflict mice have against hiding in enclosed dark areas (i.e., dark box or closed arm) and their tendency to explore novel environments (i.e., white box or open arm). Lalonde, R. & Strazielle, C. […] J. Neurosci. Methods. 171, 48-52 (2008). These tests are also sensitive to anxiolytic drug treatments. Light-Dark Box test as a measure of anxiety-associated behavior. For the light-dark box test (LDBT), there were two adjoined light and dark compartments boxes with a 7 cm square opening to allow mice to move between them. The black box was covered (20 cm×40 cm×30 cm height) and the white box (20 cm×40 cm×30 cm height) was open and illuminated (40 W). Each mouse was placed into the white compartment and the white compartment was video recorded for later analyses using ANY-maze software (version 4.75, Stoelting, Wood Dale, Ill.) which is a video tracking system designed to automate testing in behavioral experiments. The main parameters were duration of time spent in the light box; the latency to enter the dark box; and the number of transitions between the light and dark box."}}, "note": "Like-named read-outs stand apart in the source and are kept apart here. Residues, ends and D or L forms follow the SMILES beside them."}
{"molecule": "CC(C)C[C@H](NC(=O)CNC(=O)[C@H](CCCNC(=N)N)NC(=O)[C@@H]1CCCN1C(=O)[C@@H](NC(=O)CNC(=O)[C@H](CCCNC(=N)N)NC(=O)[C@H](CC(C)C)NC(=O)[C@H](CCC(=O)O)NC(=O)[C@H](C)NC(=O)[C@H](CC(C)C)NC(=O)[C@H](CCCNC(=N)N)NC(=O)[C@H](CO)NC(=O)[C@H](CCCNC(=N)N)NC(=O)[C@H](C)NC(=O)[C@H](CCCNC(=N)N)NC(=O)[C@H](CCCNC(=N)N)NC(=O)[C@H](CCCNC(=N)N)NC(=O)[C@H](CCC(N)=O)NC(=O)[C@H](CCCNC(=N)N)NC(=O)[C@H](CCCNC(=N)N)NC(=O)[C@H](CCCCN)NC(=O)[C@H](CCCCN)NC(=O)[C@H](CCCNC(=N)N)NC(=O)CNC(=O)[C@@H](N)Cc1ccc(O)cc1)C(C)C)C(=O)O", "note": "[TAT-CBD3] (H-YGRKKRRQRRRARSRLAELRGVPRGL-OH; N-terminus and C-terminus assumed)", "values": [{"measurement": "coordination or spatial memory (Morris water maze)", "setting": "spatial memory", "value": "did not affect coordination or spatial memory"}, {"measurement": "cell viability (MTT, absorbance at 490 nm)", "setting": "[1]", "value": "without affecting cell viability"}, {"measurement": "cell viability (MTT, absorbance at 490 nm)", "setting": "[1]; listed as TAT CBD3", "value": "does not affect cell viability"}, {"measurement": "LDBT number of transitions between the light and dark box", "setting": "[2]; 1 mg/kg, compared to TAT-Scramble", "value": "increased"}, {"measurement": "Light-Dark Box: Dark box latency to exit", "setting": "[2]; 0.1 mg/kg i.p.", "value": "66.0 ± 17.3", "unit": "s"}, {"measurement": "Light-Dark Box: Light box entries", "setting": "[2]; 0.1 mg/kg i.p.", "value": "10.6 ± 1.2"}, {"measurement": "Light-Dark Box: Dark box latency to exit", "setting": "[2]; 1 mg/kg i.p.", "value": "36.9 ± 5.8", "unit": "s"}, {"measurement": "Light-Dark Box: Light box entries", "setting": "[2]; 1 mg/kg i.p.", "value": "13.5 ± 1.1"}, {"measurement": "Light-Dark Box: Dark box latency to exit", "setting": "[2]; 10 mg/kg i.p.", "value": "49.5 ± 9.6", "unit": "s"}, {"measurement": "Light-Dark Box: Light box entries", "setting": "[2]; 10 mg/kg i.p.", "value": "11.5 ± 1.2"}]}
